The target in assay [1] is Human β2 adrenoceptor (Homo sapiens, UniProt P07550). To be noted: read-out: B2 binding affinity.
Assay [2] addresses Human M3 receptor (Homo sapiens, UniProt P20309). As to conditions: read-out: M3 binding affinity.

Among the data in patent publication US9579314B2 (priority 2015, dated 2017) are IC50 values, retold here.

Sequence of Human β2 adrenoceptor (P07550 whole entry): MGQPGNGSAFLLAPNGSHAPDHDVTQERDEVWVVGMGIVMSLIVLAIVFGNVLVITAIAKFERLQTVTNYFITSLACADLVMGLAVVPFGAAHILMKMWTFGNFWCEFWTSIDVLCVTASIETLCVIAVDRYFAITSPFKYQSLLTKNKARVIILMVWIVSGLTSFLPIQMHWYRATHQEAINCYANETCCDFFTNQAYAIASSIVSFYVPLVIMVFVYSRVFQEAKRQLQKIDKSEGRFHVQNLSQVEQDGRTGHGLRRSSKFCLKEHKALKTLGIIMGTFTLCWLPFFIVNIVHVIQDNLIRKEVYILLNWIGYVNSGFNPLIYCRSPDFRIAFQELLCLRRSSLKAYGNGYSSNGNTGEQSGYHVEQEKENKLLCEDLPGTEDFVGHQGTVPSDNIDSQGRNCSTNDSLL
Sequence of Human M3 receptor (P20309 whole entry): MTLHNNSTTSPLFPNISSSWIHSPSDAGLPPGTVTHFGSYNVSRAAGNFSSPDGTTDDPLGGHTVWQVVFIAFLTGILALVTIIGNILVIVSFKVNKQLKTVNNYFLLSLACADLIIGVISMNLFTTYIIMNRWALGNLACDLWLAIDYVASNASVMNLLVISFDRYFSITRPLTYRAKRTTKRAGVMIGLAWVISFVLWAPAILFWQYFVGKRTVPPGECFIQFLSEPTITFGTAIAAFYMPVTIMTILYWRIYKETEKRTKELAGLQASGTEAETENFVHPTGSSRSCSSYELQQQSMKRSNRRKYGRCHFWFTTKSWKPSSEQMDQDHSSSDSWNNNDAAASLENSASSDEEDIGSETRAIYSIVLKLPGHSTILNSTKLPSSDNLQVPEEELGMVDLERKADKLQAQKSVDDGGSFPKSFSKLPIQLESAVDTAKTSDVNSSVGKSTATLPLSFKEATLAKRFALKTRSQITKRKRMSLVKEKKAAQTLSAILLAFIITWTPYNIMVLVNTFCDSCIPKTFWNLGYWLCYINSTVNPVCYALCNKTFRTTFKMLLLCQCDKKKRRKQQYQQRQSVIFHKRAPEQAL

For `O=C(NCCCNC(=O)c1ccc(CNC[C@H](O)c2ccc(O)c3[nH]c(=O)ccc23)cc1)Nc1cccc(C(O)(C(=O)OCC2CCN(Cc3ccccc3)CC2)c2ccccc2)c1` (stereo partly drawn) [Compound 56, (1-benzylpiperidin-4-yl)methyl 2-hydroxy-2-(3-(3-(3-(4-((((R)-2-hydroxy-2-(8-hydroxy-2-oxo-1,2-dihydroquinolin-5-yl)ethyl)amino)methyl)benzamido)-propyl)ureido)phenyl)-2-phenylacetate diformate], the IC50 in assay [1] and in assay [2] was over 3 nM in each case.
In the case of `O=C(COc1cccc([C@](O)(C(=O)OCC2CCN(Cc3ccccc3)CC2)c2ccccc2)c1)NCCNC(=O)c1ccc(CNC[C@H](O)c2ccc(O)c3[nH]c(=O)ccc23)cc1` [Compound 57, (1-Benzylpiperidin-4-yl)methyl (S)-2-hydroxy-2-(3-(2-((2-(4-((((R)-2-hydroxy-2-(8-hydroxy-2-oxo-1,2-dihydroquinolin-5-yl)ethyl)amino)methyl)benzamido)ethyl)amino)-2-oxoethoxy)phenyl)-2-phenylacetate], the IC50 in assay [1] and in assay [2] was 0.3 to 3 nM each time.
`O=C(COc1cccc([C@](O)(C(=O)OCC2CCN(Cc3ccccc3)CC2)c2ccccc2)c1)N1CCN(C(=O)c2ccc(CNC[C@H](O)c3ccc(O)c4[nH]c(=O)ccc34)cc2)CC1` [Compound 58, (1-benzylpiperidin-4-yl)methyl (S)-2-hydroxy-2-(3-(2-(4-(4-((((R)-2-hydroxy-2-(8-hydroxy-2-oxo-1,2-dihydroquinolin-5-yl)ethyl)amino)methyl)benzoyl)piperazin-1-yl)-2-oxoethoxy)phenyl)-2-phenylacetate]: the IC50 in assay [1] and in assay [2] was 0.3 to 3 nM each time.
`O=C(NC1CCN(C(=O)COc2cccc([C@](O)(C(=O)OCC3CCN(Cc4ccccc4)CC3)c3ccccc3)c2)CC1)c1ccc(CNC[C@H](O)c2ccc(O)c3[nH]c(=O)ccc23)cc1` [Compound 59, (1-benzylpiperidin-4-yl)methyl (S)-2-hydroxy-2-(3-(2-(4-(4-((((R)-2-hydroxy-2-(8-hydroxy-2-oxo-1,2-dihydroquinolin-5-yl)ethyl)amino)methyl)benzamido)piperidin-1-yl)-2-oxoethoxy)phenyl)-2-phenylacetate]: the IC50 in assay [1] is under 0.3 nM; in assay [2] it was 0.3 to 3 nM.
For `CN(CCNC(=O)c1ccc(CNC[C@H](O)c2ccc(O)c3[nH]c(=O)ccc23)cc1)C(=O)COc1cccc([C@](O)(C(=O)OCC2CCN(Cc3ccccc3)CC2)c2ccccc2)c1` [Compound 60, (1-benzylpiperidin-4-yl)methyl (S)-2-hydroxy-2-(3-(2-((2-(4-((((R)-2-hydroxy-2-(8-hydroxy-2-oxo-1,2-dihydroquinolin-5-yl)ethyl)amino)methyl)benzamido)ethyl)(methyl)amino)-2-oxoethoxy)phenyl)-2-phenylacetate], in that order: 0.3 to 3 nM and 0.3 to 3 nM.
Consider `O=C(NCC1CCN(C(=O)COc2cccc([C@](O)(C(=O)OCC3CCN(Cc4ccccc4)CC3)c3ccccc3)c2)CC1)c1ccc(CNC[C@H](O)c2ccc(O)c3[nH]c(=O)ccc23)cc1` [Compound 61, (1-benzylpiperidin-4-yl)methyl (S)-2-hydroxy-2-(3-(2-(4-((4-((((R)-2-hydroxy-2-(8-hydroxy-2-oxo-1,2-dihydroquinolin-5-yl)ethyl)amino)methyl)benzamido)methyl)piperidin-1-yl)-2-oxoethoxy)phenyl)-2-phenylacetate], for which the IC50 was under 0.3 nM in assay [1] and 0.3 to 3 nM in assay [2].
For `O=C(COc1cccc([C@](O)(C(=O)OCC2CCN(Cc3ccccc3)CC2)c2ccccc2)c1)N[C@H]1CC[C@H](NC(=O)c2ccc(CNC[C@H](O)c3ccc(O)c4[nH]c(=O)ccc34)cc2)CC1` [Compound 62, (1-benzylpiperidin-4-yl)methyl (S)-2-hydroxy-2-(3-(2-(((1R,4S)-4-(4-((((R)-2-hydroxy-2-(8-hydroxy-2-oxo-1,2-dihydroquinolin-5-yl)ethyl)amino)methyl)benzamido)cyclohexyl)amino)-2-oxoethoxy)phenyl)-2-phenylacetate], in that order: under 0.3 nM and under 0.3 nM.
On to `O=C(COc1cccc([C@](O)(C(=O)OCC2CCN(Cc3ccccc3)CC2)c2ccccc2)c1)N[C@H]1C[C@H](NC(=O)c2ccc(CNC[C@H](O)c3ccc(O)c4[nH]c(=O)ccc34)cc2)C1` [Compound 63, (1-benzylpiperidin-4-yl)methyl (S)-2-hydroxy-2-(3-(2-(((1R,3S)-3-(4-((((R)-2-hydroxy-2-(8-hydroxy-2-oxo-1,2-dihydroquinolin-5-yl)ethyl)amino)methyl)benzamido)cyclobutyl)amino)-2-oxoethoxy)phenyl)-2-phenylacetate], for which the IC50 in assay [1] and in assay [2] was under 0.3 nM throughout.
As for `O=C(COc1cccc([C@](O)(C(=O)OCC2CCN(Cc3ccccc3)CC2)c2ccccc2)c1)N1CCC2(CC1)CCN(C(=O)c1ccc(CNC[C@H](O)c3ccc(O)c4[nH]c(=O)ccc34)cc1)CC2` [Compound 64, (1-benzylpiperidin-4-yl)methyl (S)-2-hydroxy-2-(3-(2-(9-(4-((((R)-2-hydroxy-2-(8-hydroxy-2-oxo-1,2-dihydroquinolin-5-yl)ethyl)amino)methyl)benzoyl)-3,9-diazaspiro[5.5]undecan-3-yl)-2-oxoethoxy)phenyl)-2-phenylacetate], the IC50 is 0.3 to 3 nM in assay [1] and under 0.3 nM in assay [2].
With `O=C(COc1cccc([C@](O)(C(=O)OCC2CCN(Cc3ccccc3)CC2)c2ccccc2)c1)NC1CCN(C(=O)c2ccc(CNC[C@H](O)c3ccc(O)c4[nH]c(=O)ccc34)cc2)CC1` [Compound 65, (1-benzylpiperidin-4-yl)methyl (S)-2-hydroxy-2-(3-(2-((1-(4-((((R)-2-hydroxy-2-(8-hydroxy-2-oxo-1,2-dihydroquinolin-5-yl)ethyl)amino)methyl)benzoyl)piperidin-4-yl)amino)-2-oxoethoxy)phenyl)-2-phenylacetate], the IC50 in assay [1] was 0.3 to 3 nM; in assay [2] it was under 0.3 nM.
As for `O=C(COc1cccc([C@](O)(C(=O)OCC2CCN(Cc3ccccc3)CC2)c2ccccc2)c1)NC1CN(C(=O)c2ccc(CNC[C@H](O)c3ccc(O)c4[nH]c(=O)ccc34)cc2)C1` [Compound 66, (1-benzylpiperidin-4-yl)methyl (S)-2-hydroxy-2-(3-(2-((1-(4-((((R)-2-hydroxy-2-(8-hydroxy-2-oxo-1,2-dihydroquinolin-5-yl)ethyl)amino)methyl)benzoyl)azetidin-3-yl)amino)-2-oxoethoxy)phenyl)-2-phenylacetate], the IC50 in assay [1] was under 0.3 nM; in assay [2] it was 0.3 to 3 nM.
For `O=C(NC1CN(C(=O)COc2cccc([C@](O)(C(=O)OCC3CCN(Cc4ccccc4)CC3)c3ccccc3)c2)C1)c1ccc(CNC[C@H](O)c2ccc(O)c3[nH]c(=O)ccc23)cc1` [Compound 67, (1-benzylpiperidin-4-yl)methyl (S)-2-hydroxy-2-(3-(2-(3-(4-((((R)-2-hydroxy-2-(8-hydroxy-2-oxo-1,2-dihydroquinolin-5-yl)ethyl)amino)methyl)benzamido)azetidin-1-yl)-2-oxoethoxy)phenyl)-2-phenylacetate], in that order: under 0.3 nM and under 0.3 nM.
For `O=C(COc1cccc([C@](O)(C(=O)OCC2CCN(Cc3ccccc3)CC2)c2ccccc2)c1)N[C@@H]1CCN(C(=O)c2ccc(CNC[C@H](O)c3ccc(O)c4[nH]c(=O)ccc34)cc2)C1` [Compound 68, (1-benzylpiperidin-4-yl)methyl (S)-2-hydroxy-2-(3-(2-(((R)-1-(4-((((R)-2-hydroxy-2-(8-hydroxy-2-oxo-1,2-dihydroquinolin-5-yl)ethyl)amino)methyl)benzoyl)pyrrolidin-3-yl)amino)-2-oxoethoxy)phenyl)-2-phenylacetate], in that order: 0.3 to 3 nM and 0.3 to 3 nM.
For `O=C(COc1cccc([C@](O)(C(=O)OCC2CCN(Cc3ccccc3)CC2)c2ccccc2)c1)N[C@H]1CCCN(C(=O)c2ccc(CNC[C@H](O)c3ccc(O)c4[nH]c(=O)ccc34)cc2)C1` [Compound 69, (1-benzylpiperidin-4-yl)methyl (S)-2-hydroxy-2-(3-(2-(((S)-1-(4-((((R)-2-hydroxy-2-(8-hydroxy-2-oxo-1,2-dihydroquinolin-5-yl)ethyl)amino)methyl)benzoyl)piperidin-3-yl)amino)-2-oxoethoxy)phenyl)-2-phenylacetate], in that order: 0.3 to 3 nM and 0.3 to 3 nM.
Consider `O=C(COc1cccc([C@](O)(C(=O)OCC2CCN(Cc3ccccc3)CC2)c2ccccc2)c1)N[C@H]1CCN(C(=O)c2ccc(CNC[C@H](O)c3ccc(O)c4[nH]c(=O)ccc34)cc2)C1` [Compound 70, (1-benzylpiperidin-4-yl)methyl (S)-2-hydroxy-2-(3-(2-(((S)-1-(4-((((R)-2-hydroxy-2-(8-hydroxy-2-oxo-1,2-dihydroquinolin-5-yl)ethyl)amino)methyl)benzoyl)pyrrolidin-3-yl)amino)-2-oxoethoxy)phenyl)-2-phenylacetate], for which the IC50 in assay [1] and in assay [2] was 0.3 to 3 nM each time.
As for `O=C(COc1cccc([C@](O)(C(=O)OCC2CCN(Cc3ccccc3)CC2)c2ccccc2)c1)N[C@@H]1CCCN(C(=O)c2ccc(CNC[C@H](O)c3ccc(O)c4[nH]c(=O)ccc34)cc2)C1` [Compound 71, (1-benzylpiperidin-4-yl)methyl (S)-2-hydroxy-2-(3-(2-(((R)-1-(4-((((R)-2-hydroxy-2-(8-hydroxy-2-oxo-1,2-dihydroquinolin-5-yl)ethyl)amino)methyl)benzoyl)piperidin-3-yl)amino)-2-oxoethoxy)phenyl)-2-phenylacetate], the IC50 in assay [1] is over 3 nM; in assay [2], 0.3 to 3 nM.
As for `O=C(N[C@H]1CCCN(C(=O)COc2cccc([C@](O)(C(=O)OCC3CCN(Cc4ccccc4)CC3)c3ccccc3)c2)C1)c1ccc(CNC[C@H](O)c2ccc(O)c3[nH]c(=O)ccc23)cc1` [Compound 72, (1-benzylpiperidin-4-yl)methyl (S)-2-hydroxy-2-(3-(2-((S)-3-(4-((((R)-2-hydroxy-2-(8-hydroxy-2-oxo-1,2-dihydroquinolin-5-yl)ethyl)amino)methyl)benzamido)piperidin-1-yl)-2-oxoethoxy)phenyl)-2-phenylacetate], the figures for the IC50 in assay [1] and in assay [2] were over 3 nM and 0.3 to 3 nM, respectively.
